Reference: patent publication US8293979B2, “Weed controller metabolism proteins, genes, thereof and use of the same” (Sumitomo Chemical Company, Limited, priority 2001, dated 2012)

Tests used:
[1] = test system: present invention protein (A1); assay: Metabolism of compounds by the present invention protein (A1), reaction solution, HPLC; format: in vitro ADME, Streptomyces phaeochromogenes IFO12898; settings: 5 ppm of compound, components A, B, C, 20 μl supernatant fraction of Example 4(2), 30° C. for 10 minutes
Description: There was prepared 100 μl of a reaction solution of 50 mM potassium phosphate buffer (pH7.0) containing 5 ppm of compound (XII), 3 mM of […] (hereinafter, referred to as “component A”) (Oriental Yeast Company), 1 mg/ml of a ferredoxin derived from spinach (hereinafter referred to as “component B”) (Sigma Company), 0.15 U/ml of ferredoxin reductase (hereinafter, referred to as “component C”) (Sigma Company) and 20 μl of the supernatant fraction recovered in Example 4(2). The reaction solution was maintained at 30° C. for 10 minutes. Further, there was prepared and maintained similarly 100 μl of a reaction solution of a 50 mM potassium phosphate buffer (pH 7.0) having no addition of at least one component utilized in the composition of the above reaction solution, selected from component A, component B, component C and the supernatant fraction prepared in Example 4(2). Ten microliters (10 μl) of 2N HCl and 500 μl of ethyl acetate were added and mixed into each of the reaction solutions after the maintenance. The resulting reaction solutions were centrifuged at 8,000×g to recover 490 μl of the ethyl acetate layer. After drying the ethyl acetate layers under reduced pressure, the residue was dissolved in 100 μl of 50 mM of potassium phosphate buffer (pH7.0). Forty microliters (40 μl) of the fraction solutions (hereinafter, the fraction solution derived from the reaction solution containing component A, component B, component C and 20 μl of supernatant fraction recovered in Example 4(2) is referred to as “(XII) metabolism solution (A1);” further, the fraction solution derived from the reaction solution containing no component A, no component B, no component C and no supernatant fraction recovered in Example 4(2) is referred to as “(XII) control solution (A1)”) were analyzed on a HPLC. Compared to the concentration of compound (XII) detected from (XII) control solution (A1), the concentration of compound (XII) detected from (XII) metabolism solution (A1) was lower. Further a peak, which was not detected from the (XII) control solution (A1), was detected from the (XII) metabolism solution (A1). Mass spectrometry was conducted for the compound contained in such a peak. The mass of the compound contained in such a peak was 14 smaller than the mass of compound (XII).
Other than utilizing 5 ppm of compound (XIII) instead of 5 ppm of compound (XII), reaction solutions were prepared and maintained similarly to the method described in Example 41(2). […] Compared to the concentration of compound (XIII) detected from (XIII) control solution (A1), the concentration of compound (XIII) detected from (XIII) metabolism solution (A1) was lower. Further a peak, which was not detected from the (XIII) control solution (A1), was detected from the (XIII) metabolism solution (A1). […]

[2] = test system: present invention protein (A23); assay: Metabolism of compounds by the present invention protein (A23), reaction solution, HPLC; format: in vitro ADME, Streptomyces roseorubens IFO 13682T; settings: 12.5 ppm of compound, components A, B, C, 20 μl supernatant fraction of Example 63(2), 30° C. for 10 minutes
present protein (A10) = target: T1, present protein (A10) (Streptomyces griseolus, UniProt P18326); format: in vitro ADME, Streptomyces griseolus ATCC 11796; settings: 5 ppm of compound, components A, B, C, 20 μl supernatant fraction of Example 10(2), 30° C. for 10 minutes, HPLC
T1 construct: made in house; host or cells: E. coli JM109 carrying pKSN11796 or pKSN11796F; 150,000 x g supernatant (crude extract)
T1 sequence (P18326 whole entry H308Q): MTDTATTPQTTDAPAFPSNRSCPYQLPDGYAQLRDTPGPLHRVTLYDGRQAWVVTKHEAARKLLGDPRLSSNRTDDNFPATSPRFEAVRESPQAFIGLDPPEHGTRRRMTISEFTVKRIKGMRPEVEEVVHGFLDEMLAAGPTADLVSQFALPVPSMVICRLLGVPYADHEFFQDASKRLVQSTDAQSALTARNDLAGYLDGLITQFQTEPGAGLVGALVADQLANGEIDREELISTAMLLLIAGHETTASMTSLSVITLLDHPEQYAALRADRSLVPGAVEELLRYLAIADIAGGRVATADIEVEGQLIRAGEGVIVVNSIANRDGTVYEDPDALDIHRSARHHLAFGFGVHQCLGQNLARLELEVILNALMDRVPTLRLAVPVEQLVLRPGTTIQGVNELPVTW

[3] = test system: present invention protein (A21); assay: Metabolism of compounds by the present invention protein (A21), reaction solution, HPLC; format: in vitro ADME, Streptomyces misawanensis IFO 13855T; settings: 12.5 ppm of compound, components A, B, C, 20 μl supernatant fraction of Example 59(2), 30° C. for 10 minutes
[4] = test system: present invention protein (A2); assay: Metabolism of compounds by the present invention protein (A2), reaction solution, HPLC; format: in vitro ADME, Saccharopolyspora taberi JCM 9383t; settings: 5 ppm of compound, components A, B, C, 20 μl supernatant fraction of Example 7(2), 30° C. for 10 minutes
[5] = test system: present invention protein (A11); assay: Metabolism of compounds by the present invention protein (A11), reaction solution, HPLC; format: in vitro ADME, Streptomyces nogalator IFO13445; settings: 5 ppm of compound, components A, B, C, 20 μl supernatant fraction of Example 32(2), 30° C. for 10 minutes
Description: There was prepared 100 μl of a reaction solution of 50 mM potassium phosphate buffer (pH7.0) containing 5 ppm of compound (XII), 3 mM of […] (hereinafter, referred to as “component A”) (Oriental Yeast Company), 1 mg/ml of a ferredoxin derived from spinach (hereinafter referred to as “component B”) (Sigma Company), 0.15 U/ml of ferredoxin reductase (hereinafter, referred to as “component C”) (Sigma Company) and 20 μl of the supernatant fraction recovered in Example 4(2). The reaction solution was maintained at 30° C. for 10 minutes. Further, there was prepared and maintained similarly 100 μl of a reaction solution of a 50 mM potassium phosphate buffer (pH 7.0) having no addition of at least one component utilized in the composition of the above reaction solution, selected from component A, component B, component C and the supernatant fraction prepared in Example 4(2). Ten microliters (10 μl) of 2N HCl and 500 μl of ethyl acetate were added and mixed into each of the reaction solutions after the maintenance. The resulting reaction solutions were centrifuged at 8,000×g to recover 490 μl of the ethyl acetate layer. After drying the ethyl acetate layers under reduced pressure, the residue was dissolved in 100 μl of 50 mM of potassium phosphate buffer (pH7.0). Forty microliters (40 μl) of the fraction solutions (hereinafter, the fraction solution derived from the reaction solution containing component A, component B, component C and 20 μl of supernatant fraction recovered in Example 4(2) is referred to as “(XII) metabolism solution (A1);” further, the fraction solution derived from the reaction solution containing no component A, no component B, no component C and no supernatant fraction recovered in Example 4(2) is referred to as “(XII) control solution (A1)”) were analyzed on a HPLC. Compared to the concentration of compound (XII) detected from (XII) control solution (A1), the concentration of compound (XII) detected from (XII) metabolism solution (A1) was lower. Further a peak, which was not detected from the (XII) control solution (A1), was detected from the (XII) metabolism solution (A1). Mass spectrometry was conducted for the compound contained in such a peak. […]
Other than utilizing 20 μl of the supernatant fraction recovered in Example 32(2) instead of 20 μl of the supernatant fraction recovered in Example 4(2), the reaction solutions were prepared and maintained in accordance with the method described in Example 41(2). […] Compared to the concentration of compound (XII) detected from (XII) control solution (A11), the concentration of compound (XII) detected from (XII) metabolism solution (A11) was lower. Further a peak, which was not detected from the (XII) control solution (A11), was detected from the (XII) metabolism solution (A11). […]

Cn1c(C(F)(F)F)cc(=O)n(-c2cc(Oc3cccnc3OCC(=O)O)c(Cl)cc2F)c1=O [compound (XII)]
lower: concentration of the compound detected from metabolism solution (A1) compared to control solution (A1) [1] | concentration of the compound detected from metabolism solution (A23) compared to control solution (A23) [2] | concentration of the compound detected from metabolism solution (A10) compared to control solution (A10) (present protein (A10)) | concentration of the compound detected from metabolism solution (A21) compared to control solution (A21) [3] | concentration of the compound detected from metabolism solution (A2) compared to control solution (A2) [4] | concentration of the compound detected from metabolism solution (A11) compared to control solution (A11) [5]

Cn1c(C(F)(F)F)cc(=O)n(-c2cc(Oc3ccccc3OCC(=O)O)c(Cl)cc2F)c1=O [compound (XIII)]
lower: concentration of the compound detected from metabolism solution (A1) compared to control solution (A1) [1] | concentration of the compound detected from metabolism solution (A23) compared to control solution (A23) [2] | concentration of the compound detected from metabolism solution (A10) compared to control solution (A10) (present protein (A10)) | concentration of the compound detected from metabolism solution (A21) compared to control solution (A21) [3] | concentration of the compound detected from metabolism solution (A2) compared to control solution (A2) [4] | concentration of the compound detected from metabolism solution (A11) compared to control solution (A11) [5]
